Laboratory results taken from patent US7968584B2, “Substituted arylpyrazoles” (Pfizer Inc., priority 2005, dated 2011).

Test system: Ctenocephalides felis
Experiment: flea membrane feed test
Details: in vitro, adult cat fleas fed 2 hours through parafilm membrane on citrated dog blood containing compound, percentage killed recorded after overnight storage, dose responses n=5; for EC80: Ctenocephalides felis, read-out: Flea feed ED80 results
Protocol: The flea membrane feed test is used to measure the biological activities of the compounds claimed. The assay involves in vitro testing against Ctenocephalides felis conducted according to the following general procedure.
Fleas are cultured in vitro using dog blood. 25-30 adult Ctenocephalides felis (cat flea) were collected and placed in a test chamber (50 ml polystyrene tube with fine nylon mesh sealing the end). Citrated dog blood was prepared by adding aqueous sodium citrate solution (10 ml, 20% w/v, 20 g sodium citrate in 100 ml water) to dog blood (250 ml). Test compounds were dissolved in dimethylsulfoxide to give a working stock solution of 4 mg/ml. The stock solution (12.5 μl) was added to citrated dog blood (5 ml) to give an initial test concentration of 10 μg/ml. For testing at 30 µg/ml, working stock solutions of 12 mg/ml were prepared.
Citrated dog blood containing the test compound (5 ml, 100 μg/ml) was placed into a plastic Petri dish lid, which was kept at 37° C. on a heated pad. Parafilm was stretched over the open top to form a tight membrane for the fleas to feed through. The test chamber containing the fleas was placed carefully onto the parafilm membrane and the fleas commenced feeding.
The fleas were allowed to feed for 2 hours and the test chambers were then removed and stored overnight at room temperature.
The fleas were observed and the percentage of fleas killed recorded. Compounds were initially tested at 100 μg/ml, wherefrom relevant dose responses (100, 30, 10, 3, 1, 0.3, 0.1 μg/ml) were conducted and repeated n=5. Data was plotted to generate ED80, ED90 & ED95 values.

Row | Compound | EC80 [µg/mL] | Flea feed ED80 results
1 | CS(=O)(=O)C1(c2c(C#N)nn(-c3c(Cl)cc(S(F)(F)(F)(F)F)cc3Cl)c2N)CC1 [Example 1, 5-amino-1-[2,6-dichloro-4-pentafluorothiophenyl]-4-[1-(methylsulfonyl)cyclopropyl]-1H-pyrazole-3-carbonitrile] | ≤ 1 | –
2 | N#Cc1nn(-c2c(Cl)cc(C(F)(F)F)cc2Cl)c(N)c1C1(C(N)=O)CC1 [Example 2, 1-{5-amino-3-cyano-1-[2,6-dichloro-4-(trifluoromethyl)phenyl]-1H-pyrazol-4-yl}cyclopropanecarboxamide] | ≤ 1 | –
3 | N#Cc1nn(-c2c(Cl)cc(S(F)(F)(F)(F)F)cc2Cl)c(N)c1C1(C#N)CC1 [Example 11, 5-amino-4-(1-cyanocyclopropyl)-1-[2,6-dichloro-4-pentafluorothiophenyl]-1H-pyrazole-3-carbonitrile] | – | ≦1 μg/ml
4 | N#Cc1nn(-c2c(Cl)cc(S(F)(F)(F)(F)F)cc2Cl)c(NCCF)c1C1(C(N)=O)CC1 [Example 16, 1-{3-cyano-1-[2,6-dichloro-4-pentafluorothiophenyl]-5-[(2-fluoroethyl)amino]-1H-pyrazol-4-yl}cyclopropanecarboxamide] | ≤ 1 | –
5 | N#Cc1nn(-c2c(Cl)cc(S(F)(F)(F)(F)F)cc2Cl)c(N)c1C1(C(N)=O)CC1(Cl)Cl (stereo not shown) [Example 18, 1-{5-amino-3-cyano-1-[2,6-dichloro-4-pentafluorothiophenyl]-1H-pyrazol-4-yl}-2,2-dichlorocyclopropanecarboxamide] | ≤ 1 | –
6 | N#Cc1nn(-c2c(Cl)cc(S(F)(F)(F)(F)F)cc2Cl)c(NCC2CC2)c1C1(C(=O)NCc2ccncc2)CC1 [Example 19, 1-{3-cyano-5-[(cyclopropylmethyl)amino]-1-[2,6-dichloro-4-pentafluorothiophenyl]-1H-pyrazol-4-yl}-N-(pyridin-4-ylmethyl)cyclopropanecarboxamide] | ≤ 1 | –
7 | CC(C)OC(=O)Nc1c(C2(C(N)=O)CC2)c(C#N)nn1-c1c(Cl)cc(S(F)(F)(F)(F)F)cc1Cl [Example 20, isopropyl {4-[1-(aminocarbonyl)cyclopropyl]-3-cyano-1-[2,6-dichloro-4-pentafluorothiophenyl]-1H-pyrazol-5-yl}carbamate] | ≤ 1 | –
8 | N#Cc1nn(-c2c(Cl)cc(S(F)(F)(F)(F)F)cc2Cl)c(NC(=O)OCC2(CF)CC2)c1C1(C(N)=O)CC1 [Example 27, [1-(fluoromethyl)cyclopropyl]methyl {4-[1-(aminocarbonyl)cyclopropyl]-3-cyano-1-[2,6-dichloro-4-pentafluorothiophenyl]-1H-pyrazol-5-yl}carbamate] | ≤ 1 | –
9 | N#Cc1nn(-c2c(Cl)cc(S(F)(F)(F)(F)F)cc2Cl)c(NCCC(N)=O)c1C1(C(N)=O)CC1 [Example 32, N˜3˜-{4-[1-(aminocarbonyl)cyclopropyl]-3-cyano-1-[2,6-dichloro-4-pentafluorothiophenyl]-1H-pyrazol-5-yl}-beta-alaninamide] | – | ≦1 μg/ml
10 | CCOC(=O)Nc1c(C2(C(N)=O)CC2)c(C#N)nn1-c1c(Cl)cc(OC(F)(F)F)cc1Cl [Example 37, ethyl {4-[1-(aminocarbonyl)cyclopropyl]-3-cyano-1-[2,6-dichloro-4-(trifluoromethoxy)phenyl]-1H-pyrazol-5-yl}carbamate] | ≤ 1 | –
11 | N#Cc1nn(-c2c(Cl)cc(S(F)(F)(F)(F)F)cc2Cl)c(NCC2CC2)c1C1(C(=O)NCc2ccccn2)CC1 [Example 45, 1-{3-cyano-5-[(cyclopropylmethyl)amino]-1-[2,6-dichloro-4-pentafluorothiophenyl]-1H-pyrazol-4-yl}-N-(pyridin-2-ylmethyl)cyclopropanecarboxamide] | – | ≦1 μg/ml
12 | N#Cc1nn(-c2c(Cl)cc(S(F)(F)(F)(F)F)cc2Cl)c(Cl)c1C1(C(N)=O)CC1 [Example 86, 1-{5-chloro-3-cyano-1-[2,6-dichloro-4-pentafluorothiophenyl]-1H-pyrazol-4-yl}cyclopropanecarboxamide] | ≤ 1 | –
13 | N#Cc1nn(-c2c(Cl)cc(S(F)(F)(F)(F)F)cc2Cl)c(CNC(=O)OCC2CC2)c1C1(C(N)=O)CC1 [Example 101, cyclopropylmethyl {4-[1-(aminocarbonyl)cyclopropyl]-3-cyano-1-[2,6-dichloro-4-pentafluorothiophenyl]-1H-pyrazol-5-yl}methylcarbamate] | – | ≦1 μg/ml
